From patent publication US11241500B2, “HSP90-targeting conjugates and formulations thereof” (TARVEDA THERAPEUTICS, INC., priority 2016, dated 2022)
Like-named read-outs stand apart in the source and are kept apart here. Values belong to the compound of their own block, whether it stands above or below them.

Columns and labels:
[1] = system: HCT-116 (human colon carcinoma); experiment: PI3K viability assay, HCT-116 cells; format: cell-based
Protocol: (§1) PI3K viability assays were carried out on the payloads and conjugates. HCT-116 (human colon carcinoma), NCI-H460 (human non-small cell lung carcinoma), and NCI-H1048 (small cell lung cancer) cells were treated with conjugates and payloads for 4 hours. After 4 hours, compounds were washed out and cells assayed for viability 72 hrs post wash out.

[2] = system: NCI-H1048 (small cell lung cancer); experiment: PI3K viability assay, NCI-H1048 cells; format: cell-based; settings: Homo sapiens
Protocol: as §1

[3] = system: NCI-H460 (human non-small cell lung carcinoma); experiment: PI3K viability assay, NCI-H460 cells; format: cell-based
Protocol: as §1

[4] = Stability of PARP inhibiting (olaparib) conjugates in plasma and tumor tissue, release of olaparib; format: in vitro ADME; settings: for Release of olaparib in plasma and tumor: plasma and tumor tissues, FIG. 1A-E
Protocol: Stabilities of conjugates comprising PARP inhibitor olaparib and HSP90 binding moieties were studied and the conversions of the conjugates to Olaparib were monitored.
In one study, concentrations of Compounds 4, 5, 6 and olaparib released from them in plasma and tumor tissue were monitored (FIG. 1A, FIG. 1B, and FIG. 1C). The linkers were cleaved to release olaparib, thus concentrations of olaparib increased over time. Half times of Compounds 4, 5, and 6 were calculated. […]

Caspase-9 = experiment: PI3K Caspase-9 assay with HCT-116 cells; format: cell-based, human; settings: 4 hour treatment, assayed 24, 48, 72 hrs
Protocol: Caspase-9 is activated during apoptosis and is an indicator of apoptosis and cytokine processing. PI3K Caspase-9 assay was conducted with HCT-116 cells. HCT-116 cells were treated with conjugates and payloads for 4 hours. After 4 hours, compounds were washed out and cells were assayed for Caspase-9 24, 48, 72, and 144 hrs. Untreated cells were not viable at 144 hrs. Caspase-9 levels 24 hours, 48 hours, and 72 hours after 4 hour treatment with Compound 10, Compound 12, Compound 13, PF-0461502, Compound 11, T-1634, and BAY80-6946 were shown in FIG. 3.

[5] = Stability of PI3K inhibiting conjugates at 37° C. in plasma and tumor homogenates
From the text: Stabilities of conjugates comprising PI3K inhibitors and HSP90 binding moieties were studied.

[6] = system: HCT-116, NCI-H460, and NCI-H1048 cells; experiment: PI3K viability assays, summary over the three cell lines; format: cell-based, human; settings: 4 hours treatment, viability 72 hrs post wash out
Protocol: as §1

[7] = In vivo tumor PK study, HCT116 colon cancer tumor line mouse model; settings: single dose at 0 hours, FIG. 4
Protocol: (§2) A tumor PK study was conducted with HSP90-binding conjugate Compound 12 in a HCT116 colon cancer tumor line mouse model. The payload on Compound 12 is the PI3K inhibitor PI-103. Both PI-103 and Compound 12 were given as a single dose at 0 hours to separate groups of mice and their concentrations in tumors were collected over time.

[8] = In vivo tumor PK study, MDA-MB-231 breast cancer tumor line mouse model
Protocol: as §2, with “MDA-MB-231 breast” for “HCT116 colon”

[9] = HCT-116, 4 hours treatment, wash out, viability 72 hrs post wash out, Run 1, read-out: IC50 HCT-116 Run 1
[10] = NCI-H1048, 4 hours treatment, wash out, viability 72 hrs post wash out, Run 1, read-out: IC50 NCI-H1048 Run 1
[11] = NCI-H460, 4 hours treatment, wash out, viability 72 hrs post wash out, Run 1, read-out: IC50 NCI-H460 Run 1
[12] = plasma, Table 1, read-out: Plasma t1/2 (converted)
[13] = tumor tissue, Table 1, read-out: Tumor t1/2 (converted)
[14] = plasma, Table 3, read-out: Plasma t1/2 (converted)
[15] = tumor tissue, Table 3, read-out: Tumor t1/2 (converted)
[16] = HCT-116, 4 hours treatment, wash out, viability 72 hrs post wash out, Run 2, read-out: IC50 HCT-116 Run 2
[17] = NCI-H1048, 4 hours treatment, wash out, viability 72 hrs post wash out, Run 2, read-out: IC50 NCI-H1048 Run 2
[18] = NCI-H460, 4 hours treatment, wash out, viability 72 hrs post wash out, Run 2, read-out: IC50 NCI-H460 Run 2
[19] = HCT-116, read-out: IC50 HCT-116 Run 2
[20] = NCI-H1048, read-out: IC50 NCI-H1048 Run 2
[21] = NCI-H460, read-out: IC50 NCI-H460 Run 2

SMILES: CC(C)c1cc(-c2nnc(O)n2-c2ccc(CN3CCN(CCC(C)(C)SSCCOC(=O)N(CCN(C)C)Cn4nc(Cc5ccc(F)c(C(=O)N6CCN(C(=O)C7CC7)CC6)c5)c5ccccc5c4=O)CC3)cc2)c(O)cc1O [Compound 7]
Release of olaparib in plasma and tumor [4]: release olaparib in plasma and tumor
half-life [4, 14]: 43 h
half-life [4, 15]: 4 h

SMILES: CC(C)c1cc(-c2nnc(O)n2-c2ccc(CN3CCN(CCC(C)(C)SSc4ccc(COC(=O)N(CCN(C)C)Cn5nc(Cc6ccc(F)c(C(=O)N7CCN(C(=O)C8CC8)CC7)c6)c6ccccc6c5=O)cc4)CC3)cc2)c(O)cc1O [Compound 8]
Release of olaparib in plasma and tumor [4]: release olaparib in plasma and tumor
half-life [4, 14]: 46 h
half-life [4, 15]: 24 h

SMILES: CC(C)c1cc(-c2nnc(O)n2-c2ccc3c(ccn3CCC3CCN(C(=O)Oc4cccc(-c5nc(N6CCOCC6)c6oc7ncccc7c6n5)c4)CC3)c2)c(O)cc1O [Compound 10]
IC50 [1, 16]: ~15500 µM
Caspase-9 signal (Caspase-9): Lack or decrease in signal
Stability in plasma versus tumor homogenates ([5]; 37° C.): less stable in plasma than in tumor homogenates
Cleavage of carbamate groups ([5]; plasma): cleaved in plasma by carboxylesterase
IC50 [2, 10]: 40.4 µM
IC50 [2, 17]: ~9160 µM
Activity in viability assays relative to payload [6]: appeared to lose activity
IC50 [3, 11]: ~3220 µM

SMILES: COc1ccc(-c2cc3c(C)nc(N)nc3n([C@H]3CC[C@H](OCCOC(=O)N4CCC(CCn5ccc6cc(-n7c(O)nnc7-c7cc(C(C)C)c(O)cc7O)ccc65)CC4)CC3)c2=O)cn1 [Compound 11]
IC50 [1, 9]: 10.2 µM
IC50 [1, 16]: 5.59 µM
Cleavage of carbamate groups [5]: cleaved in plasma by carboxylesterase
Stability in plasma versus tumor homogenates [5]: less stable in plasma than in tumor homogenates
IC50 [2, 10]: 1.77 µM
IC50 [2, 17]: 1.99 µM
IC50 [3, 11]: 3.64 µM
IC50 [3, 18]: 3.66 µM

SMILES: CC(C)c1cc(-c2nnc(O)n2-c2ccc(CN3CCN(C(=O)Oc4cccc(-c5nc(N6CCOCC6)c6oc7ncccc7c6n5)c4)CC3)cc2)c(O)cc1O [Compound 12]
IC50 [1, 19]: 3.94 µM
Concentrations in tumors over time [7]: accumulation of the conjugate, retention of the conjugate and sustained release of the payload over time
Caspase-9 signal (Caspase-9): appears to retain activity similar to payload (PI-103) and ligand (ganetespib)
Concentrations in tumors over time ([8]; single dose at 0 hours, MDA-MB-231 tumor, FIG. 5): accumulation of the conjugate, retention of the conjugate and sustained release of the payload over time
IC50 [2, 20]: 1.27 µM
Activity in viability assays relative to payload [6]: retained activity similar to PI-103 payload
IC50 [3, 21]: 1.95 µM

SMILES: CC(C)c1cc(-c2nnc(O)n2-c2ccc(CN3CCN(C(=O)NC(CSSCCNC(=O)Oc4cccc(-c5nc(N6CCOCC6)c6oc7ncccc7c6n5)c4)C(N)=O)CC3)cc2)c(O)cc1O (stereo not drawn) [Compound 13]
IC50 [1, 19]: 10.7 µM
Caspase-9 signal (Caspase-9): Lack or decrease in signal
IC50 [2, 20]: 2.9 µM
Activity in viability assays relative to payload [6]: retained activity similar to PI-103 payload
IC50 [3, 21]: 8.2 µM

SMILES: Oc1cccc(-c2nc(N3CCOCC3)c3oc4ncccc4c3n2)c1 [PI-103, reference compound]
IC50 [1, 9]: ~16500 µM
Concentrations in tumors over time [7]: detected at 1 hour and then fell below limit of detection
Concentrations in tumors over time ([8]; mouse, in vivo): detected at 1 hour and then fell to a low level at 24 h
IC50 [2, 10]: 1.94 µM
IC50 [2, 17]: 2.5 µM
IC50 [3, 11]: 2.85 µM
IC50 [3, 18]: 4.34 µM

Further lines, with some results ahead:

IC50 [1, 9]: 3.42 µM
IC50 [2, 10]: 0.13 µM
IC50 [3, 11]: 0.62 µM
SMILES: COc1c(OCCCN2CCOCC2)ccc2c1N=C(NC(=O)c1cnc(N)nc1)N1CCN=C21 [BAY80-6946, Copanlisib, reference compound]

Release of olaparib in plasma and tumor [4]: release olaparib in plasma and tumor
half-life [4, 12]: 4.5 h
half-life [4, 13]: 0.64 h
SMILES: CC(C)c1cc(-c2nnc(O)n2-c2ccc3c(ccn3CCC3CCN(CCC(C)(C)SSCCOC(=O)NCn4nc(Cc5ccc(F)c(C(=O)N6CCN(C(=O)C7CC7)CC6)c5)c5ccccc5c4=O)CC3)c2)c(O)cc1O [Compound 4]

Release of olaparib in plasma and tumor [4]: release olaparib in plasma and tumor
half-life [4, 12]: 35 h
half-life [4, 13]: 4.5 h
SMILES: CC(C)c1cc(-c2nnc(O)n2-c2ccc3c(ccn3CCC3CCN(CCC(C)(C)SSCCOC(=O)N(CCN(C)C)Cn4nc(Cc5ccc(F)c(C(=O)N6CCN(C(=O)C7CC7)CC6)c5)c5ccccc5c4=O)CC3)c2)c(O)cc1O [Compound 5]
Relative stability in plasma and tumor ([4]; plasma and tumor): more stable than Compound 4 and Compound 6 in both plasma and tumor

Release of olaparib in plasma and tumor [4]: release olaparib in plasma and tumor
half-life [4, 12]: 4.8 h
half-life [4, 13]: 0.27 h
SMILES: CC(C)c1cc(-c2nnc(O)n2-c2ccc3c(ccn3CCC3CCN(CCCSSCCOC(=O)N(CCN(C)C)Cn4nc(Cc5ccc(F)c(C(=O)N6CCN(C(=O)C7CC7)CC6)c5)c5ccccc5c4=O)CC3)c2)c(O)cc1O [Compound 6]

IC50 [1, 9]: 1.5 µM
IC50 [2, 10]: 0.21 µM
IC50 [3, 11]: 0.19 µM
SMILES: COc1ncc(-c2ccc3nccc(-c4ccnnc4)c3c2)cc1NS(=O)(=O)c1ccc(F)cc1F [GSK-2126458, Omipalisib, reference compound]

IC50 [1, 9]: 45.4 µM
IC50 [1, 16]: 11.3 µM
IC50 [2, 10]: 3.36 µM
IC50 [2, 17]: 2.63 µM
IC50 [3, 11]: 8.98 µM
IC50 [3, 18]: 3.53 µM
SMILES: COc1ccc(-c2cc3c(C)nc(N)nc3n([C@H]3CC[C@H](OCCO)CC3)c2=O)cn1 [PF-04691502, reference compound]
